Laboratory results from the supplement of paper PMC10883282.
± gives the standard deviation of the averaged measurements.

How the values were obtained:
Assay in all cases: relative viability vs DMSO control (72 h) (fraction); higher = more viable cells
SW684 = system: SW684
Procedure, shortened: (§1)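 Relative viability is percent growth read by ATPLite and averaged over up to triplicate wells. Sarcoma cells were seeded in 384-well plates to reach 80–90% confluence and given 2.5 µl of serially diluted compound after 24 h, from source plates of 10 mM to 0.0002 mM. Incubation lasted 72 h at 37 °C, 5% CO2, with 0.1% DMSO vehicle and a 5 µM positive control, and the data were rescaled so 1 equals full and 0 equals none.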

A204 = system: A204
Procedure, shortened: as §1

SK-ES-1 = system: SK-ES-1
Procedure, shortened: as §1

G401 = system: G401
Procedure, shortened: as §1

SK-LMS-1 = system: SK-LMS-1
Procedure, shortened: as §1

HS729 = system: HS729
Procedure, shortened: as §1

SW872 = system: SW872
Procedure, shortened: as §1

MES-SA = system: MES-SA
Procedure, shortened: as §1

SYO-1 = system: SYO-1
Procedure, shortened: as §1

SW1353 = system: SW1353
Procedure, shortened: as §1

SW982 = system: SW982
Procedure, shortened: as §1

KHOS-240S = system: KHOS-240S
Procedure, shortened: as §1

`COc1cc(Nc2ncc3c(n2)-c2ccc(Cl)cc2C(c2c(F)cccc2OC)=NC3)ccc1C(=O)O` [Alisertib] showed a relative viability (SW684; 0.00017 µM) of 1.16 ± 0.033, a relative viability (SW684; 0.00051 µM) of 1.17 ± 0.055 and a relative viability (SW684; 0.00152 µM) of 1.18 ± 0.02. For the same compound, the relative viability (SW684; 0.00457 µM) was 1.15 ± 0.025, the relative viability (SW684; 0.01372 µM) was 1.1 ± 0.054 and the relative viability (SW684; 0.04115 µM) was 1.09 ± 0.04. The relative viability (SW684; 0.1235 µM) was 1.01 ± 0.052, the relative viability (SW684; 0.3704 µM) was 1.01 ± 0.0077 and the relative viability (SW684; 1.111 µM) was 0.983 ± 0.045. It also gave a relative viability (SW684; 3.333 µM) of 0.919 ± 0.094, a relative viability (SW684; 10 µM) of 0.869 ± 0.054 and a relative viability (A204; 0.00017 µM) of 1.07 ± 0.042. For the same compound, the relative viability (A204; 0.00051 µM) was 1.073 ± 0.009, the relative viability (A204; 0.00152 µM) was 1.07 ± 0.022 and the relative viability (A204; 0.00457 µM) was 1.03 ± 0.014. For the same compound, the relative viability (A204; 0.01372 µM) was 1.07 ± 0.035, the relative viability (A204; 0.04115 µM) was 1.06 ± 0.036 and the relative viability (A204; 0.1235 µM) was 0.882 ± 0.12. The relative viability (A204; 0.3704 µM) was 0.796 ± 0.037, the relative viability (A204; 1.111 µM) was 0.768 ± 0.065 and the relative viability (A204; 3.333 µM) was 0.7276 ± 0.0066. It also gave a relative viability (A204; 10 µM) of 0.711 ± 0.045, a relative viability (SK-ES-1; 0.00017 µM) of 1.01 ± 0.071 and a relative viability (SK-ES-1; 0.00051 µM) of 1.05 ± 0.024. It also gave a relative viability (SK-ES-1; 0.00152 µM) of 1.05 ± 0.034, a relative viability (SK-ES-1; 0.00457 µM) of 1.01 ± 0.014 and a relative viability (SK-ES-1; 0.01372 µM) of 0.965 ± 0.051. For the same compound, the relative viability (SK-ES-1; 0.04115 µM) was 0.748 ± 0.035, the relative viability (SK-ES-1; 0.1235 µM) was 0.197 ± 0.012 and the relative viability (SK-ES-1; 0.3704 µM) was 0.0886 ± 0.0037. For the same compound, the relative viability (SK-ES-1; 1.111 µM) was 0.0443 ± 0.0024, the relative viability (SK-ES-1; 3.333 µM) was 0.0464 ± 0.0026 and the relative viability (SK-ES-1; 10 µM) was 0.0555 ± 0.0075. It also gave a relative viability (G401; 0.00017 µM) of 1.01 ± 0.057, a relative viability (G401; 0.00051 µM) of 0.979 ± 0.03 and a relative viability (G401; 0.00152 µM) of 0.984 ± 0.024. The relative viability (G401; 0.00457 µM) was 0.966 ± 0.061, the relative viability (G401; 0.01372 µM) was 0.892 ± 0.014 and the relative viability (G401; 0.04115 µM) was 0.845 ± 0.04. For the same compound, the relative viability (G401; 0.1235 µM) was 0.756 ± 0.024, the relative viability (G401; 0.3704 µM) was 0.706 ± 0.054 and the relative viability (G401; 1.111 µM) was 0.705 ± 0.033. It also gave a relative viability (G401; 3.333 µM) of 0.637 ± 0.031, a relative viability (G401; 10 µM) of 0.563 ± 0.016 and a relative viability (SK-LMS-1; 0.00017 µM) of 1.03 ± 0.066. For the same compound, the relative viability (SK-LMS-1; 0.00051 µM) was 1.02 ± 0.042, the relative viability (SK-LMS-1; 0.00152 µM) was 1.01 ± 0.014 and the relative viability (SK-LMS-1; 0.00457 µM) was 1.02 ± 0.031. It also gave a relative viability (SK-LMS-1; 0.01372 µM) of 1 ± 0.082, a relative viability (SK-LMS-1; 0.04115 µM) of 0.806 ± 0.036 and a relative viability (SK-LMS-1; 0.1235 µM) of 0.772 ± 0.013. It also gave a relative viability (SK-LMS-1; 0.3704 µM) of 0.78 ± 0.016, a relative viability (SK-LMS-1; 1.111 µM) of 0.803 ± 0.039 and a relative viability (SK-LMS-1; 3.333 µM) of 0.815 ± 0.019. The relative viability (SK-LMS-1; 10 µM) was 0.678 ± 0.012, the relative viability (HS729; 0.00017 µM) was 0.938 ± 0.02 and the relative viability (HS729; 0.00051 µM) was 0.943 ± 0.021. For the same compound, the relative viability (HS729; 0.00152 µM) was 0.932 ± 0.025, the relative viability (HS729; 0.00457 µM) was 0.888 ± 0.045 and the relative viability (HS729; 0.01372 µM) was 0.859 ± 0.037. It also gave a relative viability (HS729; 0.04115 µM) of 0.879 ± 0.078, a relative viability (HS729; 0.1235 µM) of 0.793 ± 0.092 and a relative viability (HS729; 0.3704 µM) of 0.77 ± 0.052. For the same compound, the relative viability (HS729; 1.111 µM) was 0.733 ± 0.057, the relative viability (HS729; 3.333 µM) was 0.689 ± 0.04 and the relative viability (HS729; 10 µM) was 0.716 ± 0.071. The relative viability (SW872; 0.00017 µM) was 1.02 ± 0.048, the relative viability (SW872; 0.00051 µM) was 0.974 ± 0.054 and the relative viability (SW872; 0.00152 µM) was 0.989 ± 0.031. It also gave a relative viability (SW872; 0.00457 µM) of 1.03 ± 0.02, a relative viability (SW872; 0.01372 µM) of 1.01 ± 0.014 and a relative viability (SW872; 0.04115 µM) of 1.01 ± 0.022. It also gave a relative viability (SW872; 0.1235 µM) of 0.959 ± 0.029, a relative viability (SW872; 0.3704 µM) of 0.731 ± 0.017 and a relative viability (SW872; 1.111 µM) of 0.759 ± 0.014. For the same compound, the relative viability (SW872; 3.333 µM) was 0.738 ± 0.029, the relative viability (SW872; 10 µM) was 0.661 ± 0.013 and the relative viability (MES-SA; 0.00017 µM) was 0.914 ± 0.021. The relative viability (MES-SA; 0.00051 µM) was 0.932 ± 0.031, the relative viability (MES-SA; 0.00152 µM) was 0.9332 ± 0.0036 and the relative viability (MES-SA; 0.00457 µM) was 0.933 ± 0.032. For the same compound, the relative viability (MES-SA; 0.01372 µM) was 0.9174 ± 0.0058, the relative viability (MES-SA; 0.04115 µM) was 0.621 ± 0.018 and the relative viability (MES-SA; 0.1235 µM) was 0.363 ± 0.005. The relative viability (MES-SA; 0.3704 µM) was 0.353 ± 0.0075, the relative viability (MES-SA; 1.111 µM) was 0.328 ± 0.014 and the relative viability (MES-SA; 3.333 µM) was 0.325 ± 0.014. It also gave a relative viability (MES-SA; 10 µM) of 0.316 ± 0.011, a relative viability (SYO-1; 0.00017 µM) of 0.934 ± 0.017 and a relative viability (SYO-1; 0.00051 µM) of 0.9195 ± 0.0088. The relative viability (SYO-1; 0.00152 µM) was 0.903 ± 0.017, the relative viability (SYO-1; 0.00457 µM) was 0.863 ± 0.053 and the relative viability (SYO-1; 0.01372 µM) was 0.826 ± 0.067. The relative viability (SYO-1; 0.04115 µM) was 0.783 ± 0.038, the relative viability (SYO-1; 0.1235 µM) was 0.618 ± 0.034 and the relative viability (SYO-1; 0.3704 µM) was 0.459 ± 0.026. It also gave a relative viability (SYO-1; 1.111 µM) of 0.371 ± 0.02, a relative viability (SYO-1; 3.333 µM) of 0.355 ± 0.03 and a relative viability (SYO-1; 10 µM) of 0.3041 ± 0.0013. The relative viability (SW1353; 0.00017 µM) was 0.987 ± 0.036, the relative viability (SW1353; 0.00051 µM) was 0.972 ± 0.029 and the relative viability (SW1353; 0.00152 µM) was 0.969 ± 0.024. The relative viability (SW1353; 0.00457 µM) was 0.961 ± 0.056, the relative viability (SW1353; 0.01372 µM) was 0.976 ± 0.021 and the relative viability (SW1353; 0.04115 µM) was 0.921 ± 0.039. For the same compound, the relative viability (SW1353; 0.1235 µM) was 0.886 ± 0.062, the relative viability (SW1353; 0.3704 µM) was 0.908 ± 0.048 and the relative viability (SW1353; 1.111 µM) was 0.85 ± 0.031. For the same compound, the relative viability (SW1353; 3.333 µM) was 0.817 ± 0.033, the relative viability (SW1353; 10 µM) was 0.685 ± 0.025 and the relative viability (SW982; 0.00017 µM) was 1.01 ± 0.021. It also gave a relative viability (SW982; 0.00051 µM) of 1.01 ± 0.038, a relative viability (SW982; 0.00152 µM) of 1.03 ± 0.049 and a relative viability (SW982; 0.00457 µM) of 1.02 ± 0.044. The relative viability (SW982; 0.01372 µM) was 1.03 ± 0.059, the relative viability (SW982; 0.04115 µM) was 0.968 ± 0.045 and the relative viability (SW982; 0.1235 µM) was 0.583 ± 0.031. The relative viability (SW982; 0.3704 µM) was 0.464 ± 0.013, the relative viability (SW982; 1.111 µM) was 0.37 ± 0.052 and the relative viability (SW982; 3.333 µM) was 0.348 ± 0.0075. The relative viability (SW982; 10 µM) was 0.361 ± 0.07, the relative viability (KHOS-240S; 0.00017 µM) was 1.04 ± 0.039 and the relative viability (KHOS-240S; 0.00051 µM) was 1.04 ± 0.047. The relative viability (KHOS-240S; 0.00152 µM) was 1.03 ± 0.062, the relative viability (KHOS-240S; 0.00457 µM) was 1.01 ± 0.05 and the relative viability (KHOS-240S; 0.01372 µM) was 0.996 ± 0.027. The relative viability (KHOS-240S; 0.04115 µM) was 0.884 ± 0.0098, the relative viability (KHOS-240S; 0.1235 µM) was 0.807 ± 0.022 and the relative viability (KHOS-240S; 0.3704 µM) was 0.758 ± 0.021. The relative viability (KHOS-240S; 1.111 µM) was 0.739 ± 0.021, the relative viability (KHOS-240S; 3.333 µM) was 0.681 ± 0.017 and the relative viability (KHOS-240S; 10 µM) was 0.622 ± 0.0093.
